The results in this text go back to patent publication US20240124409A1, “GUAIANOLIDE SESQUITERPENE LACTONE DERIVATIVES AND PHARMACEUTICAL USE THEREOF” (NANJING UNIVERSITY OF CHINESE MEDICINE, priority 2021, published 2024).

One series in a line: Solubility test in water. In kind it is physicochemical. Conditions: thermodynamic from solid; deionized water, 37° C. Here is the method: Saturated solutions were formulated, filtered and analyzed by HPLC with a sample volume of 1 μL, 3 μL, 5 μL, 10 μL, 15 µL and 20 μL sequentially, and the standard curves of the corresponding compounds were drawn.
[…] of the above compounds were formulated, dissolved by ultrasound for 4 h, and placed on a water bath at 37° C. to stand for 1 h. The resulting unsaturated solutions were centrifuged. 30 μL of supernatants were removed, diluted by adding 200 μL of deionized water, and then filtered.

The target in a further series is T1, NLRP3 inflammasome (Mus musculus, UniProt Q8R4B8).
T1 construct: endogenous in cells; host or cells: primary bone marrow-derived macrophages (BMDMs) from female C57BL/6 mice, differentiated with rmM-CSF
Kind of series: Inhibition of LPS and ATP induced NLRP3 inflammasome activation in BMDMs (IL-1β level). It counts as cell-based, C57BL/6 mice. Conditions: read-out: IC50, inhibitory effect on activation of NLRP3 inflammasome. An excerpt: NLRP3 is an important pattern recognition receptor, that can form the NLRP3 inflammasome through the adaptor ASC and pro-caspase-1. After activation, the NLRP3 inflammasome can mediate the activation of caspase-1, thus promoting the maturation and secretion of IL-1β. In order to determine whether the prepared guaianolide sesquiterpene lactone Compounds 1-8 can inhibit the activation of the NLRP3 inflammasome, we used LPS and ATP to induce the activation of the NLRP3 inflammasome, and observed the effects of Compounds 1-8 on the IL-1β level caused by NLRP3 inflammasome activation.
C57BL/6 mice were sacrificed by cervical dislocation, and then soaked in 75% alcohol for 5-10 min. Subsequently, two hind legs of the mice were cut off with scissors. Next, the meat was removed, and the leg bones were left, which were then washed with PBS for three times. After severing the bone at both ends, a sterile syringe filled with cold serum-free RPMI 1640 medium was used to flush the bone marrow into a 15 mL centrifuge tube. Subsequently, the bone marrow was centrifuged at 1500 rpm for 5 min, and the supernatant was discarded. The residue was resuspended with 1 mL of erythrocyte lysate, blown repeatedly, and then stood for 7 min to lyse erythrocytes. After centrifugation at 1500 rpm for 5 min, the supernatant was discarded. The residue was resuspended with the RPMI 1640 medium containing 100 ng/ml of rmM-CSF, and then transferred to a 6-well culture plate for culture.
The BMDMs were seeded on 6-well cell culture plates and then treated with 100 ng/ml ultrapure LPS for 3 h. […] Subsequently, the cells were stimulated with 5 mM ATP for 45 min. The supernatants were collected into 1.5 mL EP tubes for subsequent detection of IL-1β level.

The nature of series [1]: Stability in artificial gastric juice environment (HPLC). The following applies: 37° C.
Procedure: The samples were dissolved in 500 μL of chromatographic methanol, into which were added 1500 μL of artificial gastric juice, mixed well and then dissolved completely by ultrasound. 50 μL of the above solutions were aspirated precisely, diluted by adding 200 μL of chromatographic methanol, filtered and analyzed by HPLC, wherein the HPLC analysis conditions were mobile phase: 65% methanol -35% water, flow rate: 0.8 mL/min, and column temperature: 25° C., and the initial peak areas were recorded. The above solutions were placed on a constant temperature water bath at 37° C., sampled at 8 h, 16 h and 24 h respectively, and analyzed by HPLC. By calculating the peak areas respectively, the stability data of the corresponding samples in artificial gastric juice environment at 8 h, 16 h and 24 h can be obtained.
Series [2] concerns mouse acute liver injury model. Kind of series: Mouse acute liver injury model (CCl4). In kind it is in vivo, C57BL/6 mice. Here is the method: The mice were randomly divided into 8 groups, one of which was randomly selected as the normal group, and the other 7 groups were the model group, the parent drug 1 (0.4 and 4 μmol/kg), the hydrochloride 22 (4 μmol/kg), and the fumarate 23 (0.4 and 4 μmol/kg) groups, respectively, with 6 mice in each group. In addition to the normal group injected with 10 mL olive oil/kg, the other mice were injected intraperitoneally with 0.5 mL CCl4+9.5 mL olive oil/kg weight, i.e., the ratio of CCl4 to olive oil was 1:19. […] The mice in the normal group and model group were administered intragastrically the same volume of the solvent 0.5% CMC-Na.
1 h after the last administration, blood was collected from the venous plexus of fundus oculi, stood at room temperature for 2 h, and centrifuged at 3000 rpm for 20 min. The serum was aspirated, aliquoted, and frozen at −70° C. for subsequent use. After blood collection, the mice were sacrificed by cervical dislocation, and the abdominal cavity was opened. The livers were taken out, and rinsed twice with pre-cooled PBS. The liver left lobe tissues of the mice were cut, and fixed with 4% paraformaldehyde for 24-48 h. The remaining tissues were frozen at −70° C. for subsequent use.
μL of each sample was taken for experiments. The levels of AST and ALT in the serum of mice were detected according to the operation manual. The absorbance value was detected at the wavelength of 510 nm by a microplate reader, and the sample concentration (U/L) was calculated according to the standard curve.
The extraction method of total RNA from tissues, cDNA synthesis and the PCR amplification method are the same as those in Example 4.

In brackets after ≈: the same amount, converted by molar mass.

T1 sequence (Q8R4B8 whole entry): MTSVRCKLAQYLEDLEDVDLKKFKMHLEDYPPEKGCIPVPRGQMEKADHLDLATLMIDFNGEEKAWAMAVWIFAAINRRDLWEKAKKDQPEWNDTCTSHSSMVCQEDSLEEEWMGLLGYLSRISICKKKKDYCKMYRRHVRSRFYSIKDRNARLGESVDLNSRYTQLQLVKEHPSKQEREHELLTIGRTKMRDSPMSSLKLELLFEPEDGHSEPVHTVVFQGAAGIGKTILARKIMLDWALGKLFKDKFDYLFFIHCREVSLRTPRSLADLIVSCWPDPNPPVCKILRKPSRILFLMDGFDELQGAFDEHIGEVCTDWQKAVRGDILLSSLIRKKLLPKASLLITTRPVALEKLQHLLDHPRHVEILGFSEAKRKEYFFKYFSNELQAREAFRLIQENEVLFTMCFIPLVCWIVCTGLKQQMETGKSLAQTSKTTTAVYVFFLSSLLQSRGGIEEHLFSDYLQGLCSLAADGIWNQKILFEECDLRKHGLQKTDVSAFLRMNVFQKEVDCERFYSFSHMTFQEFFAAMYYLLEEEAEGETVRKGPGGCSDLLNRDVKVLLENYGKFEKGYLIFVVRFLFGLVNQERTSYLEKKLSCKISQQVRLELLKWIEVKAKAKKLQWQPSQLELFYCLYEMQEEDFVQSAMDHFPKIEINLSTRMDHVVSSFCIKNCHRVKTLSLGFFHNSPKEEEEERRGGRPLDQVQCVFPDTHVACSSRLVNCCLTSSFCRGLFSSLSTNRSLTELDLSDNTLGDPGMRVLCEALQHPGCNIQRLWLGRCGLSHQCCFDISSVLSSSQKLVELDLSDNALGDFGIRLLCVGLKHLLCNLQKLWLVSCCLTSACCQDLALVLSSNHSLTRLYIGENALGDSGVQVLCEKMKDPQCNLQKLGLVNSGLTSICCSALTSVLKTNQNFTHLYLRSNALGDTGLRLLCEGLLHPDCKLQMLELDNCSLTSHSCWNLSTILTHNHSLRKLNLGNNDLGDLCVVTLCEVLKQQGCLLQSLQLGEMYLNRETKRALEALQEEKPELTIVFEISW

As a reminder, the solubility is the dissolved amount per volume that the medium holds. A lower solubility goes with a poorly soluble substance. Broadly, the IC50 is the concentration that gives 50% inhibition. In turn, `C=C1C(=O)O[C@@H]2[C@H]3C(C)=CC[C@]34C[C@]4(C)CC[C@@H]12` [Compound 2] yielded a solubility in the series “Solubility test in water” of 0.0008 mg/mL (≈ 0.00327 mM). Further, on NLRP3 inflammasome, the IC50 was less than 40 nM. Also, in series [1], the “Non-degradation percentage at 8 h” value was determined as 90.92%, the “Non-degradation percentage at 16 h” value turned out to be 86.62% and the “Non-degradation percentage at 24 h” value worked out at 78.26%.

For `C=C1C(=O)O[C@H]2[C@H]1CC[C@@]1(C)C[C@]13C[C@@H](O)[C@@](C)(OC)[C@H]23` [Compound 3], the concentration in solution in the series “Solubility test in water” (solubility) was 0.0355 mg/mL (≈ 0.121 mM). Moreover, at NLRP3 inflammasome, the IC50 was less than 40 nM. In series [1], the “Non-degradation percentage at 8 h” value came out at 99.98%, the “Non-degradation percentage at 16 h” value is 99.87% and the “Non-degradation percentage at 24 h” value came to 97.77%.

For `C=C1C(=O)O[C@H]2[C@H]1CC[C@@]1(C)C[C@]13C[C@@H](O)[C@@](C)(O)[C@H]23` [Compound 4], in the series “Solubility test in water”, the solubility was 0.101 mg/mL (≈ 0.362 mM). The IC50 on NLRP3 inflammasome is less than 40 nM. In addition, in series [1], the “Non-degradation percentage at 8 h” value came out at 98.15%, the “Non-degradation percentage at 16 h” value stood at 96.84% and the “Non-degradation percentage at 24 h” value was found to be 96.21%.

Regarding `C=C1C(=O)O[C@@H]2[C@@H]3[C@]4(CC[C@@]3(C)F)C[C@]4(C)CC[C@@H]12` [Compound 5], the solubility in “Solubility test in water” was determined as 0.0259 mg/mL (≈ 0.0979 mM). Moreover, at NLRP3 inflammasome, the IC50 is less than 40 nM. In series [1], the “Non-degradation percentage at 8 h” value was 99.91%, the “Non-degradation percentage at 16 h” value is on record as 99.85% and the “Non-degradation percentage at 24 h” value came to 99.84%.

Take `C=C1C(=O)O[C@@H]2C3=C(C)CC[C@]34C[C@]4(C)CC[C@@H]12` [Compound 6]: the solubility in the series “Solubility test in water” stood at 0.00258 mg/mL (≈ 0.0106 mM). Moreover, the IC50 at NLRP3 inflammasome is less than 40 nM. In addition, in series [1], the “Non-degradation percentage at 8 h” value worked out at 99.89%, the “Non-degradation percentage at 16 h” value is 96.80% and the “Non-degradation percentage at 24 h” value was 95.72%.

In “Solubility test in water”, `C=C1C(=O)O[C@@H]2[C@@H]3[C@]4(CC[C@@]3(C)OC(=O)CC)C[C@]4(C)CC[C@@H]12` [Compound 7] showed a solubility of 0.0177 mg/mL (≈ 0.0555 mM). Moreover, the IC50 at NLRP3 inflammasome is less than 40 nM. For the same compound, in series [1], the “Non-degradation percentage at 8 h” value amounted to 99.31%, the “Non-degradation percentage at 16 h” value stood at 97.85% and the “Non-degradation percentage at 24 h” value is given as 97.65%.

Take `C=C1C(=O)O[C@@H]2[C@@H]3[C@]4(CC[C@@]3(C)OC)C[C@]4(C)CC[C@@H]12` [Compound 8]: in the series “Solubility test in water”, the solubility was 0.00852 mg/mL (≈ 0.0308 mM). Also, at NLRP3 inflammasome, the IC50 is less than 40 nM. Besides, in series [1], the “Non-degradation percentage at 8 h” value worked out at 98.36%, the “Non-degradation percentage at 16 h” value amounted to 95.58% and the “Non-degradation percentage at 24 h” value was determined as 94.08%.

In turn, `CC1=CC[C@@]23C[C@]2(C)CC[C@@H]2[C@H](OC(=O)[C@H]2CN(C)C)[C@@H]13` [Compound 24] had a solubility in the series “Solubility test in water” of 96.6 mg/mL (≈ 334 mM). Moreover, the IC50 on NLRP3 inflammasome is 40 to 80 nM.

The compound `CO[C@]1(C)[C@H](O)C[C@@]23C[C@]2(C)CC[C@@H]2[C@H](OC(=O)[C@H]2CN(C)C)[C@@H]13` [Compound 25] came in with a solubility in the series “Solubility test in water” of 221 mg/mL (≈ 654 mM). Also, the half-maximal inhibitory concentration (IC50) on NLRP3 inflammasome lay in the range of 40 to 80 nM.

Turning to `CN(C)C[C@@H]1C(=O)O[C@H]2[C@H]1CC[C@@]1(C)C[C@]13C[C@@H](O)[C@@](C)(O)[C@H]23` [Compound 26], the solubility in the series “Solubility test in water” amounted to 248 mg/mL (≈ 768 mM). Further, the IC50 at NLRP3 inflammasome fell in the range of 40 to 80 nM.

`CN(C)C[C@@H]1C(=O)O[C@H]2[C@H]1CC[C@@]1(C)C[C@]13CC[C@@](C)(F)[C@H]23` [Compound 27]: in the series “Solubility test in water”, the concentration in solution (solubility) came to 208 mg/mL (≈ 674 mM). At NLRP3 inflammasome, the IC50 is 40 to 80 nM.

As to `CC1=CC[C@@]23C[C@]2(C)CC[C@H]2[C@H](CN(C)C)C(=O)O[C@@H]2C13` (some centres unmarked) [Compound 28], in the series “Solubility test in water”, the concentration in solution (solubility) came to 120 mg/mL (≈ 416 mM). The IC50 at NLRP3 inflammasome lay in the range of 80 to 100 nM.

As to `CCC(=O)O[C@]1(C)CC[C@@]23C[C@]2(C)CC[C@@H]2[C@H](OC(=O)[C@H]2CN(C)C)[C@H]31` [Compound 29], in the series “Solubility test in water”, the solubility was found to be 195 mg/mL (≈ 535 mM). Also, the IC50 at NLRP3 inflammasome is 40 to 80 nM.

Regarding `COc1cc(C2Oc3cc([C@H]4Oc5cc(O)cc(O)c5C(=O)[C@@H]4O)ccc3OC2CO)ccc1O` (some centres unmarked) [Silybin, reference compound], in series [2] (liver, 400 μmol/kg), the “Acta2 mRNA expression” value stood at 2.91, the “Col1a1 mRNA expression” value was 1.84 and the “Tgfb1 mRNA expression” value came out at 1.11. For the same compound, in series [2] (serum, 4 μmol/kg), the ALT was found to be 121.58 U/L. In series [2] (serum, 400 μmol/kg), this compound gave an AST of 301.45 U/L.

`C=C1CC[C@H]2C(=C)CC[C@H]3C(=C)C(=O)O[C@@H]3[C@@H]12` [dehydrocostus lactone, reference compound] yielded a solubility in “Solubility test in water” of 44.8 mg/mL (≈ 195 mM). Besides, in series [1], the “Non-degradation percentage at 8 h” value came out at 68.91%, the “Non-degradation percentage at 16 h” value is listed as 65.42% and the “Non-degradation percentage at 24 h” value is 57.86%.
